# Experimental data as given in BindingDB's records for doi:10.7270/Q28051GP (Universiti Teknologi Mara, 2017).
# Biological target: T1, Beta-glucuronidase (Homo sapiens, UniProt P08236)
# T1 sequence (P08236 whole entry): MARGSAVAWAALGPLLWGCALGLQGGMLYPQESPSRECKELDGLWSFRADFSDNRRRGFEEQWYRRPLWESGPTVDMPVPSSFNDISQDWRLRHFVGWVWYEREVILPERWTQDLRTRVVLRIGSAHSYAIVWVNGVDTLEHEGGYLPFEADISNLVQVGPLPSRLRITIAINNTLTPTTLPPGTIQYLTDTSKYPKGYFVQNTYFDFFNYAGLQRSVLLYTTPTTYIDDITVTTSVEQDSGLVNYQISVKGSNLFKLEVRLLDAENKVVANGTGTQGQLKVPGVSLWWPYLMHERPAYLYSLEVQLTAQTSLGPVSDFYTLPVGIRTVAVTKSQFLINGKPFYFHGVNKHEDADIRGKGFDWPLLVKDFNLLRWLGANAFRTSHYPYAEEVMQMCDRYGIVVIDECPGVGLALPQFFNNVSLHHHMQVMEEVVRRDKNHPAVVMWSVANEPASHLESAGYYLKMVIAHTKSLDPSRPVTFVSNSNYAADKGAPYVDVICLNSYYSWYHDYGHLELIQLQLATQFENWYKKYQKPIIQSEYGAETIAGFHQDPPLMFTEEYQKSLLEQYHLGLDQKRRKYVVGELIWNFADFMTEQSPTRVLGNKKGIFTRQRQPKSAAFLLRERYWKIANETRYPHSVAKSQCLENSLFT
# Assay: β-Glucuronidase Assay
# Method: β-glucuronidase activity was determined in accordance to method used by Taha et al. [Taha et al., Bioorg. […] 250 μL was the volume of total reaction. Reaction mixture containing 5 μL of test compound solution, 185 μL of 0.1 M acetate buffer and 10 μL of enzyme solution were incubated for 30 min at 37 °C. […] To avoid precipitation, compound concentration was decreased and the volume of reaction was increased (200 μL). Precipitation probability was less thus addition of detergents was not needed.
row,SMILES,IC50 [µM]
1,O=C(N/N=C/c1ccccc1O)c1cc2cc(Cl)ccc2[nH]1 [(E)-5-chloro-N'-(2-hydroxybenzylidene)-1H-indole-2-carbohydrazide (26)],25.2
2,COc1ccc(/C=N/NC(=O)c2cc3cc(Cl)ccc3[nH]2)cc1 [(E)-5-chloro-N'-(4-methoxybenzylidene)-1H-indole-2-carbohydrazide (13)],53.6
3,Cc1ccc(/C=N/NC(=O)c2cc3cc(Cl)ccc3[nH]2)cc1 [(E)-5-chloro-N'-(4-methylbenzylidene)-1H-indole-2-carbohydrazide (1)],43.5
4,O=C(N/N=C/c1cccnc1)c1cc2cc(Cl)ccc2[nH]1 [(E)-5-chloro-N'-(pyridin-3-ylmethylene)-1H-indole-2-carbohydrazide (18)],44.5
5,O=C(N/N=C/c1ccncc1)c1cc2cc(Cl)ccc2[nH]1 [(E)-5-chloro-N'-(pyridin-4-ylmethylene)-1H-indole-2-carbohydrazide (27)],42.4
6,O=C(N/N=C/c1ccc(Cl)cc1)c1cc2cc(Cl)ccc2[nH]1 [(E)-N'-(4-chlorobenzylidene)-5-chloro-1H-indole-2-carbohydrazide (34)],37.2

# The next compounds have a lower IC50 than those just listed; values first:
row,IC50 [µM],SMILES
1,13.4,"O=C(N/N=C/c1cccc(O)c1O)c1cc2cc(Cl)ccc2[nH]1 [(E)-5-chloro-N'-(2,3-dihydroxybenzylidene)-1H-indole-2-carbohydrazide (19)]"
2,7.5,"O=C(N/N=C/c1cc(O)ccc1O)c1cc2cc(Cl)ccc2[nH]1 [(E)-5-chloro-N'-(2,5-dihydroxybenzylidene)-1H-indole-2-carbohydrazide (23)]"
3,21.5,COc1ccc(/C=N/NC(=O)c2cc3cc(Cl)ccc3[nH]2)c(O)c1 [(E)-5-chloro-N'-(2-hydroxy-4-methoxybenzylidene)-1H-indole-2-carbohydrazide (16)]
4,24.3,COc1ccc(O)c(/C=N/NC(=O)c2cc3cc(Cl)ccc3[nH]2)c1 [(E)-5-chloro-N'-(2-hydroxy-5-methoxybenzylidene)-1H-indole-2-carbohydrazide (6)]
5,14.6,"O=C(N/N=C/c1ccc(O)c(O)c1)c1cc2cc(Cl)ccc2[nH]1 [(E)-5-chloro-N'-(3,4-dihydroxybenzylidene)-1H-indole-2-carbohydrazide (24)]"
6,22.5,COc1ccc(/C=N/NC(=O)c2cc3cc(Cl)ccc3[nH]2)cc1O [(E)-5-chloro-N'-(3-hydroxy-4-methoxybenzylidene)-1H-indole-2-carbohydrazide (5)]
7,22.8,O=C(N/N=C/c1ccccn1)c1cc2cc(Cl)ccc2[nH]1 [(E)-5-chloro-N'-(pyridin-2-ylmethylene)-1H-indole-2-carbohydrazide (17)]
8,14.4,O=C(N/N=C/c1ccc(F)c(Br)c1)c1cc2cc(Cl)ccc2[nH]1 [(E)-N'-(3-bromo-4-fluorobenzylidene)-5-chloro-1H-indole-2-carbohydrazide (33)]
9,22.6,COC(=O)c1ccc(/C=N/NC(=O)c2cc3cc(Cl)ccc3[nH]2)cc1 [Methyl (E)-4-((2-(5-chloro-1H-indole-2-carbonyl)hydrazono)methyl)benzoate (15)]
